Values joined by “and” are separate entries in the source; they are usually repeats but may differ in a detail not shown here. Equal values may be shown once.

Holding throughout (format): cell-based
Assay [1] has as its system primary rat dopaminergic neurons (TH positive neurons) injured with 6-OHDA. The experiment in a line: Neuroprotective effect following exposure to 6-OHDA, with or without pathway inhibitors. The following applies: 6-OHDA 20 μM, 48 h, no compound. Here is the method:
This study investigated the mode of action of CR777 on rat primary mesencephalic cultures following exposure to 6-OHDA. The effect of CR777 on level of GDNF and BDNF mRNA was investigated after 24 h 6-OHDA incubation and CR777. The main pathways of survival, regulation of the apoptosis and neuronal growth were investigated in presence of CR777 and inhibitors of these different pathways. The following pathways were investigated using antagonists of different proteins of interest: • RAS (small GTPase)/RAF (proto-oncogene Serine/threonine kinase); • Peroxisome proliferator-activated receptor gamma (PPAR-γ) (nuclear receptor) • The Pi3K/AKT/mTor (cell signaling pathway that plays a key role in cellular homeostasis through its role in regulation of apoptosis, cell growth, cell cycle). • NO (nitric oxide) pathway
Rat dopaminergic neurons were cultured as described in Example 4.
On day 6 of culture, the medium was removed and fresh medium was added, without or with 6-OHDA (Sigma, Batch: 083M4624V) at 20 μM diluted in control medium and let for 48 h. In parallel, all inhibitors were solved in culture medium and were added 2 h before the 6-OHDA application (namely 1 h before test compounds application).
CR777 was solved in DMSO at 10 mM, diluted in culture medium and then pre-incubated with mesencephalic neurons 1 hour before the 6-OHDA application (48 h). 6 wells per condition were assessed.
For survival and α-syn aggregation, compound was tested on 1 culture in a 96 well-plate (6 wells per condition), was pre-incubated 1 hour before 6-OHDA and let for 48 hours.
The following conditions were assessed: • Control (culture medium) • +6-OHDA (20 μM, 48 h) • +6-OHDA (20 μM, 48 h)+CR777 1 μM • +6-OHDA (20 μM, 48 h)+CR777 100 nM • +6-OHDA (20 μM, 48 h)+CR777 10 nM • +6-OHDA (20 μM, 48 h)+CR777 1 nM
For pathway investigation, the compound was tested on one primary dopaminergic culture in 96 well plates (6 wells per conditions).
Inhibitors were pre-incubated for 2 hours before 6-OHDA application and CR777 was pre-incubated 1 hour before 6-OHDA application.
The antagonists/inhibitors used in the experiments are the following: • FTS: farnesylthiosalicylic acid selectively disrupts the association of chronically active Ras proteins with the plasma membrane. • BEZ-235: dual PI3K/mTOR inhibitor. • T0070907: selective PPAR-γ antagonist • L-NAME (Nitro-L-arginine methyl ester): precursor to NOS inhibitor, L-NNA—requires bioactivation to become a fully functional inhibitor. • ABT-199: selective inhibitor of Bcl-2.
48 hours after intoxication, the cell culture supernatant was taken off and the dopaminergic neurons were fixed by a solution of 4% paraformaldehyde in PBS, pH=7.3 for 20 min at room temperature.
After permeabilization with 0.1% of saponin, cells were incubated for 2 hours with:
monoclonal Anti-Tyrosine Hydroxylase (TH) antibody produced in mouse at dilution of 1/10000 in PBS containing 1% FCS, 0.1% saponin,
polyclonal anti-α-syn antibody produced in rabbit at dilution of 1/200 for 2 h at room temperature.
For each condition, 20 pictures/well (representative of ˜the all well area) were automatically taken using ImageXpress (Molecular Devices) with 10× magnification. All images were taken with the same conditions. Analysis were automatically performed by using Custom Module Editor (Molecular Devices).
The following endpoint was investigated for each culture well: • The total dopaminergic neuron survival (TH staining), • The total area of α-syn on TH positive neuron (overlapping α-syn/TH)
After permeabilization with 0.1% of saponin, cells were incubated for 2 hours with monoclonal Anti-Tyrosine Hydroxylase (TH) antibody produced in mouse at dilution of 1/10000 in PBS containing 1% FCS, 0.1% saponin, for 2 h at room temperature.
The total dopaminergic neuron survival (TH staining) was investigated for each culture well.

Assay [2] deals with primary rat motor neurons injured with glutamate. Kind of assay: Primary motor neuron culture survival after glutamate exposure (in vitro ALS model). The following applies: glutamate 5 μM for 20 min, no compound. As to the method:
The aim of this study was to study the effect of CR777 on primary motor neuron culture from rat spinal cord (SC) injured by glutamate exposure (a well validated in vitro ALS model and model of motor neuron diseases).
Rat SC motor neurons were cultured as described by Martinou et al., Neuron. 1992 April; 8(4):737-44 and Wang et al., Hum Mol Genet. 2013 Dec. 1; 22(23):4706-19. Briefly, pregnant female rats (Wistar, Janvier labs) of 14 days gestation were killed by cervical dislocation. […] Cells were then centrifuged at 180 g for 10 min at +4° C. on a layer of BSA (3.5%) in L15 medium. […] The medium was changed every day.
The following conditions were assessed: • Control • + glutamate (5 μM 20 mn then 48 h) • + glutamate (5 μM 20 mn then 48 h)+CR777 1 pmol/L • + glutamate (5 μM 20 mn then 48 h)+CR777 10 pmol/L • + glutamate (5 μM 20 mn then 48 h)+CR777 100 pmol/L • + glutamate (5 μM 20 mn then 48 h)+CR777 1 nmol/L • + glutamate (5 μM 20 mn then 48 h)+CR777 10 nmol/L • + glutamate (5 μM 20 mn then 48 h)+CR777 100 nmol/L • + glutamate (5 μM 20 mn then 48 h)+CR777 1 μmol/L • + glutamate (5 μM 20 mn then 48 h)+CR777 10 μmol/L […]
For each condition, 6 wells were assessed, 30 pictures per well were taken using ImageXpress (Molecular Devices) with 20× magnification, to assess motor neuron survival (MAP-2). […]

The test system of assay [3] is primary rat cortical neurons injured with glutamate. Kind of assay: Effect in rat primary cortical neurons after glutamate injury. The settings on record: glutamate 40 μM, 20 min, no compound. Here is the method: A., et al., 1999. J Neurosci 19: 2455-2463 and Callizot.
The medium was changed every 2 days. The cortical neurons were intoxicated with glutamate solution.
The following conditions were assessed: • Control (culture medium) • + glutamate (40 μM, 20 min) • + glutamate (40 μM, 20 min)+CR777 (at each concentration)

Assay [4] has as its system primary rat dopaminergic neurons (TH positive neurons) injured with MPP+. Kind of assay: Neuroprotective effect following exposure to MPP+. The following applies: MPP+ 4 μM, 48 h, no compound. As to the method:
This study investigated the neuroprotective effect of the Compound CR777 of example 1 on rat primary mesencephalic cultures following exposure to 1-methyl-4-phenyl pyridinium (MPP^+).
Rat dopaminergic neurons were cultured as described by Visanji et al., 2008 FASEB J. 2008; 22(7):2488-97. Briefly, the midbrains obtained from 15-day old rat embryos (Janvier Labs, France) were dissected under a microscope. The embryonic midbrains were removed and placed in ice-cold medium of Leibovitz (L15, Batch 4290114, Pan Biotech, Germany) containing 2% of Penicillin-Streptomycin (PS, Batch 1451013, Pan Biotech) and 1% of bovine serum albumin (BSA, Batch K030913, Pan Biotech). The ventral portion of the mesencephalic flexure, a region of the developing brain rich in dopaminergic neurons, was used for the cell preparations.
The midbrains were dissociated by trypsinisation for 20 min at 37° C. […] The cells were seeded in supplemented neurobasal medium at a density of 40 000 cells/well in 96 well-plates pre-coated with poly-L-lysine (Batch 3102256, Corning Biocoat) and maintained in a humidified incubator at 37° C. in 5% CO2/95% air atmosphere. Half of the medium was changed every 2 days with fresh medium.
On day 6 of culture, the medium was removed and fresh medium was added, without or with MPP+ at 4 μM diluted in control medium and let for 48 h. […]
The following conditions were assessed: (6 wells per condition) • Control (vehicle) • Compound CR777 of example 1 (1 pmol/L) • Compound CR777 of example 1 (10 pmol/L) • Compound CR777 of example 1 (100 pmol/L) • Compound CR777 of example 1 (1 nmol/L) • Compound CR777 of example 1 (10 nmol/L) • Compound CR777 of example 1 (100 nmol/L) • Compound CR777 of example 1 (1 μmol/L) • Compound CR777 of example 1 (10 μmol/L) […]
Data were expressed in percentage of control conditions (no injury, no compound=100%). All values were expressed as mean+/−SEM (standard error mean) of the 6 wells with statistical analyses on the different conditions (ANOVA followed by Dunnett's test when allowed, using GraphPad Prism software).

For assay [5], the system named is primary rat cortical neurons injured with Aβ1-42. The experiment in a line: Neuroprotective effect on an in vitro model of Alzheimer disease. The following applies: Aβ1-42 20 μM, 24 h, no compound. As to the method: These peptides contribute to cerebrovascular lesions and are neurotoxic. This study investigated the neuroprotective effect of the plant extract of the invention on rat primary cortical cultures following exposure to Aβ1-42 in an in vitro AD model (Callizot. N., et al., 2013).
Rat cortical neurons were cultured as described in Example 6.
The cortical neurons were intoxicated with amyloid beta peptides solutions after 11 days of culture in presence of tested compound CR777.
Briefly, Aβ1-42 peptide (Batch: APN09080-1-1, Abcam, United Kingdom) was dissolved in the defined culture medium B27 mentioned above, devoid of serum, at an initial concentration of 40 μmol/L. This solution was gently agitated for 3 days at 37° C. in the dark and immediately used after being properly diluted in culture medium to the concentrations used (20 μM corresponding to 2 μM of AβO, measuring by WB, for survival, neurite network, tau phosphor and caspase 3 activation and 2.5 μM corresponding to 0.25 μM of AβO, for synapses evaluation).
CR777 was solved in DMSO at 10 mM and diluted in culture medium at different concentrations (see table below). The compound was tested on one primary cortical culture in 96 well plates (6 wells per conditions), and was pre-incubated 1 hour before Aβ1-42 application for 24 hours.
24 hours after intoxication, the cell culture supernatant was taken off and the cortical neurons were fixed by a cold solution of ethanol (95%) and acetic acid (5%) for 5 min at −20° C. • Plate 1: Immunostainning (MAP-2/Tau Phosphor)
After permeabilization with 0.1% of saponin, cells were incubated for 2 hours with a) a mouse monoclonal antibody anti phosphoT at dilution of 1/400 in PBS containing 1% fetal calf serum and 0.1% of saponin and b) a chicken polyclonal antibody anti microtubule-associated-protein 2 (MAP-2) at dilution of 1/1000 in PBS containing 1% fetal calf serum and 0.1% of saponin (this antibody stains specifically cell bodies and neurites, allowing study of neuronal cell survival and neurite network).
For each condition, 30 pictures/well (representative of ˜the all well area) were taken automatically using ImageXpress (Molecular Devices) with 20× magnification. All images were taken with the same conditions. Analysis were performed automatically by using Custom Module Editor (Molecular Devices).
The following endpoints were investigated per culture well: • The total neuron survival (MAP-2 staining), • The neurite network (MAP-2 staining) and • hyperphophorylation of T protein (pT) into neurons (pT/MAP-2). • Plate 2: Immunostainning (MAP-2/Caspase 3)
For each condition, 30 pictures/well (representative of ˜the all well area) were taken automatically using ImageXpress (Molecular Devices) with 20× magnification. All images were taken with the same conditions. Analysis were performed automatically by using Custom Module Editor (Molecular Devices). • The total number of caspase 3 positive neuron (overlapping caspase3/MAP-2) were investigated per culture well:
Data is expressed in percentage of control conditions (no injury, no compound=100%). All values are expressed as mean+/−SEM (standard error of the mean) from 6 wells per condition per culture. Neuro-Sys performed graphs and statistical analyses on the different conditions (ANOVA followed by Dunnett's test when allowed, using GraphPad Prism software version 5.0).

As for `NCCc1cc(O)c(O)cc1O` [Compound 6-OHDA, reference compound], in assay [1], the “TH positive neuronal death induced by the toxin” value is on record as roughly 30%; the “loss of the neurite network induced by the toxin” value was ~35% and ~40%; the “α-syn aggregation inside TH neuron cytoplasm induced by the toxin” value is “large and significant α-syn aggregation”.

As to `N[C@@H](CCC(=O)O)C(=O)O` [Glutamate, glutamate, reference compound], the “motor neuron death induced by glutamate” value in assay [2] is given as greater than 30%. Besides, in assay [3], the “neurite network loss induced by glutamate” value is given as “neurite network loss” and the “neuronal death induced by glutamate” value was “significant neuronal death”.

On to `C[n+]1ccc(-c2ccccc2)cc1` [MPP+, 1-methyl-4-phenyl pyridinium, reference compound], for which the “TH positive neuron cell death induced by the toxin” value in assay [4] is reported as greater than 35%.

For the compound “Amyloid beta peptide 1-42 [Aβ, reference compound]”, in assay [5], the “caspase 3 activation induced by Aβ” value is on record as “activation of caspase 3”, the “hyperphosphorylation of tau induced by Aβ” value is recorded as “increase of the hyperphosphorylation of tau” and the “neurite network loss induced by Aβ” value is listed as roughly 40%.

Source of the values: US11634452B2, “Compounds for treating neurodegenerative disorders” (ETHNODYNE, priority 2017, dated 2023).
